Data as given in PMC6467784 (Journal of medicinal chemistry, 2019).
Each block holds one compound with its values, some of them ahead of it.

Tests used:
hA3AR = hA3AR (Homo sapiens, UniProt P0DMS8); details: read-out: A3AR Ki; human (h); ref [1],[17],[23],[30],[32]-[35],[43],[45]; cited from earlier work
[1] = test system: off-target receptors and transporters; assay: PDSP off-target screen; assay type: binding, human
hA1AR = biological target: T1, hA1AR (Homo sapiens, UniProt P30542); details: read-out: A1AR Ki; human (h); ref [1],[17],[23],[30],[32]-[36],[43]-[45]; cited from earlier work
T1 sequence (P30542 1-326): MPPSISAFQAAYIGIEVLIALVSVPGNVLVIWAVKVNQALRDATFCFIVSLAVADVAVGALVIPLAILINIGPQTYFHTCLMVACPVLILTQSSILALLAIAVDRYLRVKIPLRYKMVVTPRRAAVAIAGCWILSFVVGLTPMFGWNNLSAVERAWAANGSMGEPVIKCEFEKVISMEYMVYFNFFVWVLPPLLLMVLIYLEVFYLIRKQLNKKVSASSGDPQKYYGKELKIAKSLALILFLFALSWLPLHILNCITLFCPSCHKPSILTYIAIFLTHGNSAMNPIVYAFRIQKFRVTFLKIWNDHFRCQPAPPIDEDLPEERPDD

hA2AAR = hA2AAR (Homo sapiens, UniProt P29274); details: read-out: A2AAR Ki; human (h); ref [1],[17],[23],[30],[32]-[35],[43],[45]; cited from earlier work
hA2AAR, sequence (P29274 whole entry): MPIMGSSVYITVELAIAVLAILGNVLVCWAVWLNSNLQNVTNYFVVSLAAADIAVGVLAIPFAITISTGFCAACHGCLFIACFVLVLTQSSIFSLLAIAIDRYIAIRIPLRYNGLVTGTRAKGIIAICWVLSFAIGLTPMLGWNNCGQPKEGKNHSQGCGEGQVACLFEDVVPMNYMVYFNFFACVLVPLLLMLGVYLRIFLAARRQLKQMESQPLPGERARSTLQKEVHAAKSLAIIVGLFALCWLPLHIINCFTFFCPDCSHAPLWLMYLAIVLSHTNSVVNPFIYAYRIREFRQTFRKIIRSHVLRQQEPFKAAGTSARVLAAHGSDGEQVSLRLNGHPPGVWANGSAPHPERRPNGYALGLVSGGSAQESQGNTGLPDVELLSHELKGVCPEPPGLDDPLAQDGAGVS

rA2AAR = details: read-out: A2AAR Ki; rat (r); ref [17],[23],[30],[33],[34],[43],[45]; cited from earlier work
σ1 = σ1 (Homo sapiens, UniProt Q99720); assay: PDSP off-target binding, σ1
σ1, sequence (Q99720 whole entry): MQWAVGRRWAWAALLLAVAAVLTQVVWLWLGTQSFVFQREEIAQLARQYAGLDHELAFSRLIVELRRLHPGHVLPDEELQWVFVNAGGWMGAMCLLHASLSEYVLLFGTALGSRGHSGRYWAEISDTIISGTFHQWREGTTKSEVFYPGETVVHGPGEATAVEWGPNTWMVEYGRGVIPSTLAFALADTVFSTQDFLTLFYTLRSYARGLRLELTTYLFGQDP

rA1AR = rA1AR (Rattus norvegicus, UniProt P25099); details: read-out: A1AR Ki; rat (r); ref [17],[23],[30],[33],[34],[43],[45]; cited from earlier work
rA1AR, sequence (P25099 whole entry): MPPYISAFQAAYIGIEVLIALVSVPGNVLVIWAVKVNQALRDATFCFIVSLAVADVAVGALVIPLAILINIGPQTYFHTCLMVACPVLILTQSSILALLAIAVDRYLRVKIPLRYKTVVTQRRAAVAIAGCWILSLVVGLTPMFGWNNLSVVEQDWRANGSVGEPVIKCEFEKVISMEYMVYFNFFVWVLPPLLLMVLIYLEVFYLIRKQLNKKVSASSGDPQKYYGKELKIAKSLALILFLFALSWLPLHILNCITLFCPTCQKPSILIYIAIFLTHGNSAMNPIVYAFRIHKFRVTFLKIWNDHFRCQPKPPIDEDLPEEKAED

A1AR, A3AR = details: ref [30]; cited from earlier work
Human liver microsomes = assay type: in vitro ADME
GPCR assays = assay: Broad GPCR screening; assay type: cell-based; details: at 10 μM; DiscoverX
mouse = details: 60 mg/kg
[2] = Pharmacokinetics in male cynomolgus monkeys; assay type: in vivo, cynomolgus monkey; details: one-day observation period
[3] = Stability in simulated intestinal fluid; assay type: in vitro ADME
wild-type C57BL/6J mice = details: 3 mg/kg ip.; average from dosing to 60 min; ref [30]; cited from earlier work
anesthetized rat = assay: Cardiovascular effects in the anesthetized rat; assay type: in vivo; details: 3 mg/kg, ip., preliminary
female rhesus monkeys = assay: Tolerability in female rhesus monkeys; assay type: in vivo, rhesus monkey; details: 1 or 3 mg/kg in a food treat; up to 4 h post-dosing
403 kinases = assay: Kinase screen; assay type: binding; details: at 10 μM; among 403 kinases
mA1AR = biological target: T2, mA1AR (Mus musculus, UniProt Q60612); details: read-out: A1AR Ki; mouse (m); ref [17],[23],[30],[32]-[34],[36],[43]-[45]; cited from earlier work
T2 sequence (Q60612 1-326): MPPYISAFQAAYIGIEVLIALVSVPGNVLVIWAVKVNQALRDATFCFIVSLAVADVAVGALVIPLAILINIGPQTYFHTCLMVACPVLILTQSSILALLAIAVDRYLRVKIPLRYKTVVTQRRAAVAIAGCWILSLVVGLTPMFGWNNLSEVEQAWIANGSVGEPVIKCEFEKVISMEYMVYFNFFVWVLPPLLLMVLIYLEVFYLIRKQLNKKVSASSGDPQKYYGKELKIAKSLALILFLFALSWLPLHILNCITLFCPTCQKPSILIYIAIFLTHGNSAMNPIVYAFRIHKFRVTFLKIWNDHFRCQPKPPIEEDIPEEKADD

DAT = DAT (Homo sapiens, UniProt Q01959); assay: PDSP off-target binding, DAT; details: read-out: Off-target Ki, DAT
DAT, sequence (Q01959 whole entry): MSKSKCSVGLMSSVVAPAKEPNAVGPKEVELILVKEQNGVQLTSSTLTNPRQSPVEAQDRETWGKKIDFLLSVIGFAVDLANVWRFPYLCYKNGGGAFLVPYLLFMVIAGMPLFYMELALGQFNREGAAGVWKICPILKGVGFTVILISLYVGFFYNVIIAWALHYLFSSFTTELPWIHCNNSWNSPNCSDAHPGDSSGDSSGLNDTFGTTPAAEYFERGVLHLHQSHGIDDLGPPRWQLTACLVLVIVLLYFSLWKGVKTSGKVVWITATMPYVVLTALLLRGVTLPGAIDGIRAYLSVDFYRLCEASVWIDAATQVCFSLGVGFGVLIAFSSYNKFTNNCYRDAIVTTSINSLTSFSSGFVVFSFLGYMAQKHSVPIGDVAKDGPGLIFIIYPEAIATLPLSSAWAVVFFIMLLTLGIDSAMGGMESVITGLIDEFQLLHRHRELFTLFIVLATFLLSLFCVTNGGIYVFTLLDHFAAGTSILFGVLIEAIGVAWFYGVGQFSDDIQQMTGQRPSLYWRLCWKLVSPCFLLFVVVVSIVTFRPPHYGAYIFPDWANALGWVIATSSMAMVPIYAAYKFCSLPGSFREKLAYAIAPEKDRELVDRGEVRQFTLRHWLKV

mA3AR = mA3AR (Mus musculus, UniProt Q61618); details: read-out: A3AR Ki; mouse (m); ref [17],[23],[30],[32]-[34],[43],[45]; cited from earlier work
mA3AR, sequence (Q61618 whole entry): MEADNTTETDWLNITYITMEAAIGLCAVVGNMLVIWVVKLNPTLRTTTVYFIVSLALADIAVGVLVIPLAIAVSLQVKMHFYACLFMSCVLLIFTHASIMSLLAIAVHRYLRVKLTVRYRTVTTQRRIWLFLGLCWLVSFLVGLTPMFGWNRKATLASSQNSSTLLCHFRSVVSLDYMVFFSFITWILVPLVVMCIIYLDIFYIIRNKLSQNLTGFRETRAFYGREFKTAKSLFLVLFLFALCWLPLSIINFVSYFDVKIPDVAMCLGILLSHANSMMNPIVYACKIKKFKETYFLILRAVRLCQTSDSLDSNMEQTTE

5HT2C = 5HT2C (Homo sapiens, UniProt P28335); assay: PDSP off-target binding, 5HT2C; details: read-out: Off-target Ki, 5HT2C
5HT2C, sequence (P28335 33-458): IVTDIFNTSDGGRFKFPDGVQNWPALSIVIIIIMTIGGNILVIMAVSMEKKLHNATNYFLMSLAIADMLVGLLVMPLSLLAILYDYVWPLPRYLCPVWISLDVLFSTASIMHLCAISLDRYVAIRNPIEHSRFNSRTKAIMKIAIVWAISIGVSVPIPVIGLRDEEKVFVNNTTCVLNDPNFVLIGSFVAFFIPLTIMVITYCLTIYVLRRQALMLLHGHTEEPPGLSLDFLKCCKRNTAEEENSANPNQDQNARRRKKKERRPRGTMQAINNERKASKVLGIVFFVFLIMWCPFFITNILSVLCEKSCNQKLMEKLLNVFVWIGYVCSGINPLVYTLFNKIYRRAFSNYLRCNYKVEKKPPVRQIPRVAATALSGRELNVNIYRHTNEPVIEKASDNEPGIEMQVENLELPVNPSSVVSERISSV

mA2AAR = mA2AAR (Mus musculus, UniProt Q60613); details: mouse (m); at 10 μM; ref [30],[33],[34],[43]; cited from earlier work
mA2AAR, sequence (Q60613 whole entry): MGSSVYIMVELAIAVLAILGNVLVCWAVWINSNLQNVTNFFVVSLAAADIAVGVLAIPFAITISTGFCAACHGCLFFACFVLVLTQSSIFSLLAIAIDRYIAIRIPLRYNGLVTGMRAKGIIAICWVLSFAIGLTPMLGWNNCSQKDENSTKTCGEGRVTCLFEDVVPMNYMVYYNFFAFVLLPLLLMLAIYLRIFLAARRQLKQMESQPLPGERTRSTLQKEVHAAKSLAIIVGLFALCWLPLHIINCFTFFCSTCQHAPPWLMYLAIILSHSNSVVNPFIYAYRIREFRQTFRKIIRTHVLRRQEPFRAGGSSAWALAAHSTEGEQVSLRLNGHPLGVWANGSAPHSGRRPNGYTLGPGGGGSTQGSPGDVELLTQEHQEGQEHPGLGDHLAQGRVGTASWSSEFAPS

hA3AR, sequence (P0DMS8 whole entry): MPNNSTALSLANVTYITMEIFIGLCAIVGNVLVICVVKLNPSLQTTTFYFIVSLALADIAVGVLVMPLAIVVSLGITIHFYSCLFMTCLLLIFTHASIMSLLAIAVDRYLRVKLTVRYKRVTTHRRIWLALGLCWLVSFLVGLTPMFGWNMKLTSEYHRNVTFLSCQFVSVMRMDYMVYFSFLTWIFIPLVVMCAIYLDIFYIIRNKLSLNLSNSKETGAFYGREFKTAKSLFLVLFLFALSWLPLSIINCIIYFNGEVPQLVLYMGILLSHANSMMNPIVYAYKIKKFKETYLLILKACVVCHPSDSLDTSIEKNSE

- Off-target, receptor: interactions found [1]: none
Structure (SMILES): OC[C@H]1O[C@@H](n2cnc3c(NC(C4CC4)C4CC4)ncnc32)[C@H](O)[C@@H]1O [Compound 8]
- Ki (hA3AR): 0.0413 ± 0.0053 µM
- Ki (hA1AR): 0.00085 ± 0.00027 µM
- Ki (hA2AAR): 1.47 ± 0.38 µM
- Ki (rA2AAR): 1.37 µM

- Ki (DAT): 4.75 µM
- Ki (5HT2C): 1.85 µM
Structure (SMILES): OCC12CC1C(n1cnc3c(NC(C4CC4)C4CC4)nc(Cl)nc31)C(O)C2O (centres unmarked) [Compound 23]
- Ki (mA1AR): 0.00071 µM
- Ki (mA3AR): 1.03 µM
- Ki (hA3AR): 1.6 ± 0.21 µM
- Ki (hA1AR): 0.039 ± 0.017 µM
- Ki (hA2AAR): 2.2 µM
- A2AAR % inhibition (mA2AAR): 41±9%

The next lines start with the compound.

Structure (SMILES): CNC(=O)[C@]12C[C@@H]1[C@@H](n1cnc3c(NC4CCCC4)nc(Cl)nc31)[C@H](O)[C@@H]2O [Compound 6]
- Ki (σ1): 1.55 µM

Structure (SMILES): Nc1nc(Cl)nc2c1ncn2[C@H]1[C@H](O)[C@H](O)[C@]2(CO)C[C@H]12 [Compound 21]
- Ki (rA1AR): 0.273 µM
- Off-target, receptor: interactions found [1]: none

Structure (SMILES): O[C@@H]1[C@H](O)[C@@H]2C[C@@H]2[C@H]1n1cnc2c(NC(C3CC3)C3CC3)nc(Cl)nc21 [Compound 7]
- ARs causing hypothermia (A1AR, A3AR): A3AR >> A1AR[30]
- Stability in human liver microsomes (Human liver microsomes): stable
- Broad GPCR screening result (GPCR assays): not promiscuous
- Lethality in the mouse (mouse): non-lethal
- Clinical observations [2]: no clinical observations
- Stability in simulated intestinal fluid [3]: stable
- Tb (wild-type C57BL/6J mice): 33.4±1.7 °C
- Effects on heart rate and blood pressure (anesthetized rat): modest effects on heart rate (slow onset of reduction) and blood pressure (a modest, transient rise)
- Adverse reaction after oral dosing (female rhesus monkeys): no adverse reaction
- Hits in kinase screen (403 kinases): only two weak hits
